From ChEMBL document CHEMBL1158860, “New Diosgenin Glycosides from Costus afer” (J Nat Prod, 1997)
Active and inactive are the calls of the source. No cut-off for these calls is given here.

System: HL-60
Assay: Potentiation of cisplatin cytotoxicity against human HL60 cells
Type: functional, cell-based

**Q.** Which Activity does the source give for C[C@@H]1CC[C@@]2(OC1)O[C@H]1C[C@H]3[C@@H]4CC=C5C[C@@H](O[C@@H]6O[C@H](CO)[C@@H](O[C@@H]7OC[C@](O)(CO)[C@H]7O)[C@H](O)[C@H]6O)CC[C@]5(C)[C@H]4CC[C@]3(C)[C@H]1[C@@H]2C here?
**A.** inactive

**Q.** For C[C@@H]1CC[C@@]2(OC1)O[C@H]1C[C@H]3[C@@H]4CC=C5C[C@@H](O[C@@H]6O[C@H](CO)[C@@H](O[C@@H]7O[C@@H](C)[C@H](O)[C@@H](O)[C@H]7O)[C@H](O)[C@H]6O[C@@H]6O[C@@H](C)[C@H](O)[C@@H](O)[C@H]6O)CC[C@]5(C)[C@H]4CC[C@]3(C)[C@H]1[C@@H]2C, which Activity is on record?
**A.** inactive

**Q.** Which Activity does the source give for CC(=O)O[C@@H]1[C@@H](O)[C@@H](O)[C@H](O[C@H]2[C@H](O[C@H]3CC[C@@]4(C)C(=CC[C@H]5[C@@H]6C[C@@H]7O[C@]8(CC[C@@H](C)CO8)[C@@H](C)[C@@H]7[C@@]6(C)CC[C@@H]54)C3)O[C@H](CO)[C@@H](O[C@@H]3OC[C@](O)(CO)[C@H]3O)[C@@H]2O)O[C@H]1C here?
**A.** inactive

**Q.** For C[C@@H]1CC[C@@]2(OC1)O[C@H]1C[C@H]3[C@@H]4CC=C5C[C@@H](O[C@@H]6O[C@H](CO)[C@@H](O[C@@H]7OC[C@](O)(CO)[C@H]7O)[C@H](O)[C@H]6O[C@@H]6O[C@@H](C)[C@H](O)[C@@H](O)[C@H]6O)CC[C@]5(C)[C@H]4CC[C@]3(C)[C@H]1[C@@H]2C, which Activity is on record?
**A.** inactive
